The results in this text go back to patent US6472348B1, “Pyridone derivatives and herbicides” (Kumiai Chemical Industry Co., Ltd., priority 1996, dated 2002).

One data set concerns cotton (Go). Description: Test Example 4: crop plant selectivity by upland field soil treatment (cotton), phytotoxicity. It is filed as in vivo. Set-up: scale not given here. The note with it: evaluated 21st day after application. An outline of the steps: (§1)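 Seeds of cotton and several weed species were sown in sand-filled pots and covered with soil before soil treatment with the test compound. Plants were grown in a greenhouse, and herbicidal effect and crop phytotoxicity were scored against set standards 21 days after application.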

The subject of data set [1] is China jute (Ab). In words: Test Example 4: crop plant selectivity by upland field soil treatment (cotton), herbicidal effects. It is filed as in vivo. Set-up: scale not given here. The note with it: evaluated 21st day after application. The gist of the method:
as §1

In data set [2] the test system is common lambsquarters (Ch). Described as above. It is filed as in vivo. Details: scale not given here. The note with it: evaluated 21st day after application. An outline of the steps: as §1
Another data set deals with pale smartweed (Po). The data set is described as above. Details: scale not given here. It is filed as in vivo. The note with it: evaluated 21st day after application. An outline of the steps:
as §1

In another data set the test system is green foxtail (Se). The data set is described as above. The note with it: evaluated 21st day after application. It counts as in vivo. Set-up: scale not given here. The gist of the method:
as §1

The test system of a further data set is slender amaranth (Am). The data set is described as above. Set-up: scale not given here. The note with it: evaluated 21st day after application. It counts as in vivo. An outline of the steps:
as §1

For the next data set, the system named is wheat (Tr). Description: Test Example 9: crop plant selectivity by upland field foliage treatment (wheat), phytotoxicity.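 Note: grade of crop injury; 5 = at least 90%; 4 = 70 to 90%; 3 = 50 to 70%; 2 = 30 to 50%; 1 = 10 to 30%; 0 = under 10%.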 The note with it: dose 1.6 g ai/10a, 14th day after treatment. An outline of the steps: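 Seeds of wheat, pale smartweed, slender amaranth, common lambsquarters and China jute are sown in sand and grown 2 weeks under glass. Foliage is then treated, culture resumes in the greenhouse, and damage is graded on the 14th day.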

Data set [3] concerns China jute (Ab). In words: Test Example 11: crop plant selectivity by upland field foliage treatment (corn), herbicidal effects. It is filed as in vivo. The note with it: dose 1.6 g ai/10a. Details: scale not given here. The gist of the method: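 Corn and the weed species were sown together in sand-filled pots and grown in a greenhouse for 2 weeks before foliar treatment. Herbicidal effect was scored on day 14 after treatment against a graded standard scale, with corn phytotoxicity scored alongside.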

The mark [4] stands for this setting: upland field foliage treatment (corn test), 14th day after treatment.

With `Cn1c(C(F)(F)F)ccc(-c2cc(OCC(F)(F)F)c(Cl)cc2F)c1=O` [1-155], the “Phytotoxicity Go” value with cotton (Go) (dose 1.6 g ai/10 a) and with cotton (Go) (dose 6.3 g ai/10 a) was 0 throughout. The “Herbicidal effects Ab” value in the data set on China jute (Ab) [1] (dose 1.6 g ai/10 a) and with China jute (Ab) [1] (dose 6.3 g ai/10 a) was 5 each time. Also, the “Herbicidal effects Ch” value in data set [2] (dose 1.6 g ai/10 a) and in data set [2] (dose 6.3 g ai/10 a) was 5 in each case. Further, the “Herbicidal effects Po” value in the data set with pale smartweed (Po) (dose 1.6 g ai/10 a) and in the data set with pale smartweed (Po) (dose 6.3 g ai/10 a) was 5 each time. The “Herbicidal effects Se” value in the data set with green foxtail (Se) (dose 1.6 g ai/10 a) and with green foxtail (Se) (dose 6.3 g ai/10 a) was 5 throughout. Also, the “Herbicidal effects Am” value in the data set with slender amaranth (Am) (dose 1.6 g ai/10 a) and in the data set on slender amaranth (Am) (dose 6.3 g ai/10 a) was 5 in each case.
As for `Cn1c(C(F)(F)F)ccc(-c2cc(OCC3CC3)c(Cl)cc2F)c1=O` [1-160], in the data set with wheat (Tr), the “Phytotoxicity Tr” value is given as 2. Besides, the “Phytotoxicity Go” value with cotton (Go) (dose 6.3 g ai/10 a) stood at 1. Moreover, the “Herbicidal effects Ab” value in the data set on China jute (Ab) [1] (dose 6.3 g ai/10 a) is 5. For the same compound, the “Herbicidal effects Ch” value in data set [2] (dose 6.3 g ai/10 a) is 5. For the same compound, the “Herbicidal effects Po” value in the data set on pale smartweed (Po) (dose 6.3 g ai/10 a) came to 5. Further, in the data set with green foxtail (Se) (dose 6.3 g ai/10 a), the “Herbicidal effects Se” value amounted to 5. In addition, the “Herbicidal effects Am” value with slender amaranth (Am) (dose 6.3 g ai/10 a) was determined as 5.
For the compound `C#CC(O)c1cc(-c2ccc(C(F)(F)F)n(C)c2=O)c(F)cc1Cl` (stereo not shown) [Compound 1-202], in the data set on wheat (Tr), the “Phytotoxicity Tr” value worked out at 2. Moreover, the “Phytotoxicity Go” value in the data set on cotton (Go) (dose 1.6 g ai/10 a) and with cotton (Go) (dose 6.3 g ai/10 a) was 1 each time. In addition, the “Herbicidal effects Ab” value in the data set with China jute (Ab) [1] (dose 1.6 g ai/10 a) and in the data set on China jute (Ab) [1] (dose 6.3 g ai/10 a) was 5 each time. The “Herbicidal effects Ch” value in data set [2] (dose 1.6 g ai/10 a) and in data set [2] (dose 6.3 g ai/10 a) was 5 in each case. Also, the “Herbicidal effects Po” value in the data set with pale smartweed (Po) (dose 1.6 g ai/10 a) and in the data set with pale smartweed (Po) (dose 6.3 g ai/10 a) was 5 in each case. Also, the “Herbicidal effects Se” value in the data set on green foxtail (Se) (dose 1.6 g ai/10 a) and with green foxtail (Se) (dose 6.3 g ai/10 a) was 5 each time. Also, the “Herbicidal effects Am” value in the data set on slender amaranth (Am) (dose 1.6 g ai/10 a) and in the data set on slender amaranth (Am) (dose 6.3 g ai/10 a) was 5 in each case.
For the compound `Cc1cc2c(-c3ccc(C(F)(F)F)n(C)c3=O)c(F)cc(Cl)c2o1` [Compound 4-1], the “Phytotoxicity Tr” value in the data set on wheat (Tr) was determined as 2. Further, the “Phytotoxicity Go” value turned out to be 0 in the data set with cotton (Go) (dose 1.6 g ai/10 a) and 1 with cotton (Go) (dose 6.3 g ai/10 a). Moreover, the “Herbicidal effects Ab” value in the data set on China jute (Ab) [1] (dose 1.6 g ai/10 a) and in the data set with China jute (Ab) [1] (dose 6.3 g ai/10 a) was 5 each time. In addition, the “Herbicidal effects Ch” value in data set [2] (dose 1.6 g ai/10 a) and in data set [2] (dose 6.3 g ai/10 a) was 5 in each case. For the same compound, the “Herbicidal effects Po” value in the data set with pale smartweed (Po) (dose 1.6 g ai/10 a) and in the data set on pale smartweed (Po) (dose 6.3 g ai/10 a) was 5 in each case. Moreover, the “Herbicidal effects Se” value in the data set with green foxtail (Se) (dose 1.6 g ai/10 a) and with green foxtail (Se) (dose 6.3 g ai/10 a) was 5 in each case. Moreover, the “Herbicidal effects Am” value in the data set on slender amaranth (Am) (dose 1.6 g ai/10 a) and in the data set with slender amaranth (Am) (dose 6.3 g ai/10 a) was 5 each time.
With `CCc1cc2c(-c3ccc(C(F)(F)F)n(C)c3=O)c(F)cc(Cl)c2o1` [Compound 4-2], the “Phytotoxicity Tr” value in the data set with wheat (Tr) amounted to 2. The “Phytotoxicity Go” value in the data set with cotton (Go) (dose 1.6 g ai/10 a) was 1; in the data set with cotton (Go) (dose 6.3 g ai/10 a) it was 2. The “Herbicidal effects Ab” value with China jute (Ab) [1] (dose 1.6 g ai/10 a) and with China jute (Ab) [1] (dose 6.3 g ai/10 a) was 5 each time. The “Herbicidal effects Ch” value in data set [2] (dose 1.6 g ai/10 a) and in data set [2] (dose 6.3 g ai/10 a) was 5 throughout. The “Herbicidal effects Po” value with pale smartweed (Po) (dose 1.6 g ai/10 a) and in the data set on pale smartweed (Po) (dose 6.3 g ai/10 a) was 5 each time. In addition, the “Herbicidal effects Se” value with green foxtail (Se) (dose 1.6 g ai/10 a) and in the data set on green foxtail (Se) (dose 6.3 g ai/10 a) was 5 in each case. Further, the “Herbicidal effects Am” value in the data set with slender amaranth (Am) (dose 1.6 g ai/10 a) and in the data set on slender amaranth (Am) (dose 6.3 g ai/10 a) was 5 in each case.
As for `C#CCN1C(=O)COc2cc(F)c(-c3cn(C)c(C(F)(F)F)cc3=O)cc21` [Compound 7-1], the “Phytotoxicity Tr” value in the data set on wheat (Tr) was determined as 2. Moreover, the “Phytotoxicity Go” value in the data set with cotton (Go) (dose 6.3 g ai/10 a) is listed as 1. Also, the “Herbicidal effects Ab” value in the data set with China jute (Ab) [3] (China jute, foliage treatment, evaluated on 14th day after treatment, index per Table 47) turned out to be 5; with China jute (Ab) [1] (dose 6.3 g ai/10 a) it was 5. In addition, in the data set with pale smartweed (Po) (dose 6.3 g ai/10 a), the “Herbicidal effects Po” value is reported as 5. Also, the “Herbicidal effects Se” value in the data set on green foxtail (Se) (dose 6.3 g ai/10 a) was 5. In the data set with slender amaranth (Am) (dose 6.3 g ai/10 a), the “Herbicidal effects Am” value was 5.
`CON=Cc1cc(-c2ccc(C(F)(F)F)n(C)c2=O)c(F)cc1Cl` [Compound No. 1-72, 5-(1-methyl-6-trifluoromethyl-2(1H)-pyridon-3-yl)-2-chloro-4-fluorobenzaldehydeoxime-O-methyl ether]: the “Phytotoxicity Go” value in the data set on cotton (Go) (dose 1.6 g ai/10 a) and with cotton (Go) (dose 6.3 g ai/10 a) was 0 throughout. For the same compound, the “Herbicidal effects Ab” value with China jute (Ab) [3] (setting [4]), in the data set with China jute (Ab) [1] (dose 1.6 g ai/10 a) and in the data set with China jute (Ab) [1] (dose 6.3 g ai/10 a) was 5 each time. Further, the “Herbicidal effects Ch” value in data set [2] (dose 1.6 g ai/10 a) and in data set [2] (dose 6.3 g ai/10 a) was 5 in each case. For the same compound, the “Herbicidal effects Po” value in the data set with pale smartweed (Po) (dose 1.6 g ai/10 a) and with pale smartweed (Po) (dose 6.3 g ai/10 a) was 5 throughout. Moreover, the “Herbicidal effects Se” value in the data set with green foxtail (Se) (dose 1.6 g ai/10 a) and with green foxtail (Se) (dose 6.3 g ai/10 a) was 5 throughout. In addition, the “Herbicidal effects Am” value with slender amaranth (Am) (dose 1.6 g ai/10 a) and in the data set with slender amaranth (Am) (dose 6.3 g ai/10 a) was 5 each time.
As to `C#CCn1c(=O)sc2cc(F)c(-c3ccc(C(F)(F)F)n(C)c3=O)cc21` [Compound No. 3-1, 3-[6-fluoro-3-(2-propynyl)-benzothiazolin-2-on-5-yl]-1-methyl-6-trifluoromethyl-2(1H)-pyridone], the “Phytotoxicity Go” value came out at 0 in the data set with cotton (Go) (dose 1.6 g ai/10 a) and 1 in the data set with cotton (Go) (dose 6.3 g ai/10 a). The “Herbicidal effects Ab” value with China jute (Ab) [1] (dose 1.6 g ai/10 a) and with China jute (Ab) [1] (dose 6.3 g ai/10 a) was 5 each time. Besides, the “Herbicidal effects Ch” value in data set [2] (dose 1.6 g ai/10 a) and in data set [2] (dose 6.3 g ai/10 a) was 5 throughout. For the same compound, the “Herbicidal effects Po” value in the data set on pale smartweed (Po) (dose 1.6 g ai/10 a) and with pale smartweed (Po) (dose 6.3 g ai/10 a) was 5 throughout. Besides, the “Herbicidal effects Se” value in the data set on green foxtail (Se) (dose 1.6 g ai/10 a) and with green foxtail (Se) (dose 6.3 g ai/10 a) was 5 each time. Also, the “Herbicidal effects Am” value in the data set with slender amaranth (Am) (dose 1.6 g ai/10 a) and in the data set with slender amaranth (Am) (dose 6.3 g ai/10 a) was 5 throughout.
Consider `COCc1cc2c(-c3ccc(C(F)(F)F)n(C)c3=O)c(F)cc(Cl)c2o1` [Compound No. 4-4, 3-(7-chloro-5-fluoro-2-methoxymethylbenzofuran-4-yl)-1-methyl-6-trifluoromethyl-2-(1H)-pyridone], for which the “Phytotoxicity Go” value in the data set on cotton (Go) (dose 1.6 g ai/10 a) is on record as 0; in the data set with cotton (Go) (dose 6.3 g ai/10 a), 1. Besides, the “Herbicidal effects Ab” value in the data set with China jute (Ab) [3] (setting [4]), in the data set with China jute (Ab) [1] (dose 1.6 g ai/10 a) and in the data set on China jute (Ab) [1] (dose 6.3 g ai/10 a) was 5 throughout. Further, the “Herbicidal effects Ch” value in data set [2] (dose 1.6 g ai/10 a) and in data set [2] (dose 6.3 g ai/10 a) was 5 each time. The “Herbicidal effects Po” value with pale smartweed (Po) (dose 1.6 g ai/10 a) and with pale smartweed (Po) (dose 6.3 g ai/10 a) was 5 in each case. The “Herbicidal effects Se” value in the data set on green foxtail (Se) (dose 1.6 g ai/10 a) and in the data set with green foxtail (Se) (dose 6.3 g ai/10 a) was 5 each time. Also, the “Herbicidal effects Am” value with slender amaranth (Am) (dose 1.6 g ai/10 a) and with slender amaranth (Am) (dose 6.3 g ai/10 a) was 5 in each case.
